Laboratory results reported in US20190142800A1, “SYNERGISTIC ANTIFUNGAL COMPOSITIONS AND METHODS THEREOF” (VYOME THERAPEUTICS LIMITED, priority 2016, published 2019).

Tests used:
[1] = test system: azole resistant C. albicans MTCC 227; test: Checkerboard assay on azole resistant C. albicans MTCC 227; format: cell-based, Candida albicans; details: for MIC: Candida albicans, MTCC227, agent alone
Method: The synergy is measured by determining the fractional inhibitory concentration (FIC) value of the combination. This experimental set up, called checkerboard method, allows measurement of a desired effect (inhibition of fungal growth in this case) at different combinations of various concentrations of the two agents (antifungal agent and fatty acid/ester). […] No agent is added to the penultimate column on the right and the bottom row. The final column on the right is used for growth control (only inoculum in broth) and sterility control (broth alone, no inoculum). […] FIC values for both agents in a particular well were calculated in this way followed by determination of the FIC index (sum of the FICs of each drug in the concerned well). […] Agents Chemother.
(§1) Using the checkerboard layout experimental setup described above (FIG. 1A), various medium-chain fatty acids were tested for their ability to potentiate the activity of a known antifungal agent. Concentrations above and below the MIC of each test agent were tested using serial dilution. The same procedure was expanded to test combinations of various medium-chain fatty acids C-1 to C-14 (such caprylic acid, undecylenic acid and lauric acid) and esters thereof, with antifungal agents from various classes including azoles, allylamines, benzylamines, zinc pyrithione and piroctone olamine against both susceptible and resistant Trichophyton spp. (filamentous fungus) and Candida spp. (yeast).
Potentiation of the activity of antimycotic agents using ester derivatives of medium chain fatty acids was tested in a standard, well accepted in vitro assay system to check for synergy. This experimental set up, called checkerboard method, allows measurement of a desired effect (inhibition of fungal growth in this case) at different combinations of various concentrations of two agents. A chosen medium chain fatty acid (C-1 to C-14) or its ester derivative was tested for its ability to potentiate the activity of a known antifungal agent (various classes) using the checkerboard layout. Various concentrations above and below the MIC of each test agent were tested using serial dilution in Sabouraud dextrose broth. […] FIC values for both test agents in a particular well are calculated in this way followed by determination of the FIC index (sum of the FICs of each drug in the concerned well).

[2] = test system: Trichophyton rubrum (ATCC-28188); test: Checkerboard assay of fatty acid/ester with antifungals on Trichophyton rubrum (ATCC 28188); format: cell-based; design: key to FIC index: FIC index = sum of FICs; FIC = agent conc in well / agent MIC; details: for MIC: Trichophyton rubrum, ATCC28188, agent alone
Method: The synergy is measured by determining the fractional inhibitory concentration (FIC) value of the combination. This experimental set up, called checkerboard method, allows measurement of a desired effect (inhibition of fungal growth in this case) at different combinations of various concentrations of the two agents (antifungal agent and fatty acid/ester). […] No agent is added to the penultimate column on the right and the bottom row. The final column on the right is used for growth control (only inoculum in broth) and sterility control (broth alone, no inoculum). […] FIC value for each agent in a particular well of the checkerboard layout was calculated by dividing the agent concentration in that well by the established MIC value of the agent against the test organism (Hsieh et al., Synergy assessed by checkerboard: A critical Analysis, Diagn. Microbiol. Infect Dis. (1993) 16:343-349). FIC values for both agents in a particular well were calculated in this way followed by determination of the FIC index (sum of the FICs of each drug in the concerned well). […] Agents Chemother. (2010) 54(2): 602-609].
as §1
Potentiation of the activity of antimycotic agents using ester derivatives of medium chain fatty acids was tested in a standard, well accepted in vitro assay system to check for synergy. This experimental set up, called checkerboard method, allows measurement of a desired effect (inhibition of fungal growth in this case) at different combinations of various concentrations of two agents. A chosen medium chain fatty acid (C-1 to C-14) or its ester derivative was tested for its ability to potentiate the activity of a known antifungal agent (various classes) using the checkerboard layout. Various concentrations above and below the MIC of each test agent were tested using serial dilution in Sabouraud dextrose broth. […] FIC value for a drug in a particular well of the checkerboard layout is calculated by dividing the drug concentration in that well by the established MIC value of the drug against the test organism (Hsieh et al., Synergy assessed by checkerboard: A critical Analysis, Diagn. Microbiol. Infect Dis. (1993) 16:343-349). FIC values for both test agents in a particular well are calculated in this way followed by determination of the FIC index (sum of the FICs of each drug in the concerned well).

[3] = Table 9, caprylic acid (C8) series
[4] = Table 10, propylene glycol monocaprylate series
[5] = Table 11, glyceryl monocaprylate series
[6] = Table 12, undecylenic acid (C11) series
[7] = Table 13, lauric acid (C12) series
[8] = Table 14, propylene glycol monolaurate series
[9] = agent's MIC in combination antifungal + caprylic acid (partner: other agent of same combination no.)
[10] = agent's MIC in combination antifungal + glyceryl monocaprylate (partner: other agent of same combination no.)
[11] = agent's MIC in combination antifungal + lauric acid (partner: other agent of same combination no.)
[12] = agent's MIC in combination antifungal + propylene glycol monocaprylate (partner: other agent of same combination no.)
[13] = agent's MIC in combination antifungal + propylene glycol monolaurate (partner: other agent of same combination no.)
[14] = agent's MIC in combination antifungal + undecylenic acid (partner: other agent of same combination no.)
[15] = antifungal in combination with caprylic acid
[16] = antifungal in combination with glyceryl monocaprylate
[17] = antifungal in combination with lauric acid
[18] = antifungal in combination with propylene glycol monocaprylate
[19] = antifungal in combination with propylene glycol monolaurate
[20] = antifungal in combination with undecylenic acid
[21] = combination antifungal + caprylic acid
[22] = combination antifungal + glyceryl monocaprylate
[23] = combination antifungal + lauric acid
[24] = combination antifungal + propylene glycol monocaprylate
[25] = combination antifungal + propylene glycol monolaurate
[26] = combination antifungal + undecylenic acid
[27] = Table 2, propylene glycol monocaprylate series
[28] = Table 3, glyceryl monocaprylate series
[29] = Table 5, lauric acid (C12) series
[30] = Table 4, undecylenic acid (C11) series

For CC(=O)N1CCN(c2ccc(OCC3COC(Cn4ccnc4)(c4ccc(Cl)cc4Cl)O3)cc2)CC1 (centres unmarked) [Ketoconazole], the MIC [1, 3] was 64 mg/L, the MIC [1, 4] was 128 mg/L and the MIC [1, 5] was 128 mg/L. It also gave an MIC [1, 6] of 128 mg/L, an MIC [1, 7] of 64 mg/L and an MIC [1, 8] of 128 mg/L. For the same compound, the “Combination MIC” value [1, 9] was 0.25 mg/L, the “Combination MIC” value [1, 10] was 2 mg/L and the “Combination MIC” value [1, 11] was 0.25 mg/L. For the same compound, the “Combination MIC” value [1, 12] was 8 mg/L, the “Combination MIC” value [1, 13] was 32 mg/L and the “Combination MIC” value [1, 14] was 1 mg/L. For the same compound, the FIC index [1, 15] was 0.253, the Interaction [1, 15] was “Synergistic (Combinations that gave FIC indices less than 1 were designated “synergistic”)” and the FIC index [1, 16] was 0.265. For the same compound, the Interaction [1, 16] was “Synergistic (Combinations that gave FIC indices less than 1 were designated “synergistic”)”, the FIC index [1, 17] was 0.127 and the Interaction [1, 17] was “Synergistic (Combinations that gave FIC indices less than 1 were designated “synergistic”)”. The FIC index [1, 18] was 0.187, the Interaction [1, 18] was “Synergistic (Combinations that gave FIC indices less than 1 were designated “synergistic”)” and the FIC index [1, 19] was 0.281. For the same compound, the Interaction [1, 19] was “Synergistic (Combinations that gave FIC indices less than 1 were designated “synergistic”)”, the FIC index [1, 20] was 0.132 and the Interaction [1, 20] was “Synergistic (Combinations that gave FIC indices less than 1 were designated “synergistic”)”. It also gave an FIC [1, 21] of 0.003, an FIC [1, 22] of 0.0156 and an FIC [1, 23] of 0.003. It also gave an FIC [1, 24] of 0.0625, an FIC [1, 25] of 0.25 and an FIC [1, 26] of 0.0078. It also gave an MIC ([2]; Table 1, caprylic acid series) of 0.312 mg/L, an MIC [2, 27] of 0.3 mg/L and an MIC [2, 28] of 0.321 mg/L. For the same compound, the “Combination MIC” value [2, 9] was 0.0781 mg/L, the “Combination MIC” value [2, 10] was 0.009 mg/L and the “Combination MIC” value [2, 12] was 0.0375 mg/L. For the same compound, the FIC index [2, 15] was 0.5, the Interaction [2, 15] was “Synergistic (Combinations that gave FIC indices less than 1 were designated “synergistic”)” and the FIC index [2, 16] was 0.531. For the same compound, the Interaction [2, 16] was “Synergistic (Combinations that gave FIC indices less than 1 were designated “synergistic”)”, the FIC index [2, 18] was 0.625 and the Interaction [2, 18] was “Synergistic (Combinations that gave FIC indices less than 1 were designated “synergistic”)”. The FIC [2, 21] was 0.25, the FIC [2, 22] was 0.031 and the FIC [2, 24] was 0.125.
In the case of CCCCCCCCCCCC(=O)O [Lauric acid], the MIC [1, 7] is reported as 3120 mg/L and the MIC [2, 29] is reported as 15.6 mg/L.
With C=CCCCCCCCCC(=O)O [Undecylenic acid] the MIC [1, 6] was 500 mg/L, the MIC [2, 30] was 31.3 mg/L and the “Agent MIC” value ([2]; agent alone, Table 4, undecylenic acid (C11) series) was 62.5 mg/L.
Compound C=C1CCN([C@H](C)[C@](O)(Cn2cncn2)c2ccc(F)cc2F)CC1 [Efinaconazole] has an MIC [1, 3] of 128 mg/L, an MIC [1, 4] of 128 mg/L and an MIC [1, 5] of 128 mg/L. For the same compound, the MIC [1, 6] was 128 mg/L, the MIC [1, 7] was 128 mg/L and the MIC [1, 8] was 128 mg/L. The “Combination MIC” value [1, 9] was 0.5 mg/L, the “Combination MIC” value [1, 10] was 1 mg/L and the “Combination MIC” value [1, 11] was 0.5 mg/L. The “Combination MIC” value [1, 12] was 4 mg/L, the “Combination MIC” value [1, 13] was 0.5 mg/L and the “Combination MIC” value [1, 14] was 4 mg/L. The FIC index [1, 15] was 0.3, the Interaction [1, 15] was “Synergistic (Combinations that gave FIC indices less than 1 were designated “synergistic”)” and the FIC index [1, 16] was 0.257. For the same compound, the Interaction [1, 16] was “Synergistic (Combinations that gave FIC indices less than 1 were designated “synergistic”)”, the FIC index [1, 17] was 0.128 and the Interaction [1, 17] was “Synergistic (Combinations that gave FIC indices less than 1 were designated “synergistic”)”. The FIC index [1, 18] was 0.281, the Interaction [1, 18] was “Synergistic (Combinations that gave FIC indices less than 1 were designated “synergistic”)” and the FIC index [1, 19] was 0.018. The Interaction [1, 19] was “Synergistic (Combinations that gave FIC indices less than 1 were designated “synergistic”)”, the FIC index [1, 20] was 0.093 and the Interaction [1, 20] was “Synergistic (Combinations that gave FIC indices less than 1 were designated “synergistic”)”. For the same compound, the FIC [1, 21] was 0.062, the FIC [1, 22] was 0.007 and the FIC [1, 23] was 0.003. It also gave an FIC [1, 24] of 0.031, an FIC [1, 25] of 0.003 and an FIC [1, 26] of 0.031. The MIC ([2]; Table 1, caprylic acid series) was 0.125 mg/L, the MIC [2, 27] was 0.125 mg/L and the MIC [2, 28] was 0.125 mg/L. It also gave an MIC [2, 30] of 0.03 mg/L, an MIC [2, 29] of 0.03 mg/L and an MIC ([2]; Table 6, propylene glycol monolaurate series) of 0.03 mg/L. For the same compound, the “Combination MIC” value [2, 9] was 0.0625 mg/L, the “Combination MIC” value [2, 10] was 0.0625 mg/L and the “Combination MIC” value [2, 11] was 0.015 mg/L. For the same compound, the “Combination MIC” value [2, 12] was 0.007 mg/L, the “Combination MIC” value [2, 13] was 0.008 mg/L and the “Combination MIC” value [2, 14] was 0.015 mg/L. For the same compound, the FIC index [2, 15] was 0.625, the Interaction [2, 15] was “Synergistic (Combinations that gave FIC indices less than 1 were designated “synergistic”)” and the FIC index [2, 16] was 0.625. For the same compound, the Interaction [2, 16] was “Synergistic (Combinations that gave FIC indices less than 1 were designated “synergistic”)”, the FIC index [2, 17] was 0.75 and the Interaction [2, 17] was “Synergistic (Combinations that gave FIC indices less than 1 were designated “synergistic”)”. The FIC index [2, 18] was 0.556, the Interaction [2, 18] was “Synergistic (Combinations that gave FIC indices less than 1 were designated “synergistic”)” and the FIC index [2, 19] was 0.76. For the same compound, the Interaction [2, 19] was “Synergistic (Combinations that gave FIC indices less than 1 were designated “synergistic”)”, the FIC index [2, 20] was 0.74 and the Interaction [2, 20] was “Synergistic (Combinations that gave FIC indices less than 1 were designated “synergistic”)”. The FIC [2, 21] was 0.5, the FIC [2, 22] was 0.5 and the FIC [2, 23] was 0.5. It also gave an FIC [2, 24] of 0.056, an FIC [2, 25] of 0.266 and an FIC [2, 26] of 0.5.
